The values that follow come from patent US7531545B2, “2-amino-3,4-dihydro-pyrido[3,4-d]pyrimidine derivatives useful as inhibitors of β-secretase (BACE)” (Janssen Pharmaceutica, N.V., priority 2005, dated 2009).

The assay deals with human BACE-1 (Homo sapiens, UniProt P56817). Kind of assay: CEREP BACE Inhibition Assay. Type of assay: biochemical. The settings on record: recombinant enzyme; for inhibition at 1 µM / % Inhibition @ 1.0 μM: percent inhibition of the control activity; for inhibition at 1 µM: read-out: % Inhibition @ 1.0 μM; for IC50: read-out: IC50. On the procedure:
More specifically the assay, run at 50 μL in a 96 well plate, evaluated the effect of test compound on the activity of the human BACE-1 quantified by measuring the formation of Mca-S-E-V-N-L-NH2 from […], using a recombinant enzyme. The test compound, reference compound or water (control) were added to a buffer containing 0.09 M sodium acetate (pH 4.5) and 0.25 μg BACE-1. Compound interference with the fluorimetric detection method due to autofluorescence was then checked by measurements at the wavelengths defined to evaluate the enzyme activity. […] For control basal measurement, the substrate was omitted from the reaction mixture. […] The standard inhibitory reference compound was OM99-2, which was tested in each experiment at several concentrations to obtain an inhibition curve from which its IC50 value was calculated.

Sequence of human BACE-1 (P56817 46-501): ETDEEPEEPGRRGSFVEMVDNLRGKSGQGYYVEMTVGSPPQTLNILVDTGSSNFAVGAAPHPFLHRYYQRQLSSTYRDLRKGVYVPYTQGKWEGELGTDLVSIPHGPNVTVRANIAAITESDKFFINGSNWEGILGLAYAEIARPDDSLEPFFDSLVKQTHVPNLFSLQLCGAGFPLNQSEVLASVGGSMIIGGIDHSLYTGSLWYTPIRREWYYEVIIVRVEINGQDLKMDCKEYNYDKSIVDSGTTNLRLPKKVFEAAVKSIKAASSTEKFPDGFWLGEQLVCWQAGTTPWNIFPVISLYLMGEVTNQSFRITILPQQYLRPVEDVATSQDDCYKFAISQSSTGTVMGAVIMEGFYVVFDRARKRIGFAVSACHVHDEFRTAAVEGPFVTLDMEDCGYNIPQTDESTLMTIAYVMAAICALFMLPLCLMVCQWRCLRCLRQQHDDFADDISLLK

Usually inhibition stands for the drop in the measured response relative to a control, in per cent. As a reminder, the IC50 is the concentration that gives 50% inhibition. `CC(C)(C)OC[C@@H](NC(=O)CC[C@@H](C1CCCCC1)N1Cc2cc(Oc3ccccc3)ncc2N=C1N)C(N)=O` [Compound 111]: the inhibition at 1 µM is 100% and the IC50 came to 110 nM.

As for `CC(C)(C)N(CCO)C(=O)CC[C@@H](C1CCCCC1)N1Cc2cc(Oc3ccccc3)ncc2N=C1N` [Compound 115], the inhibition at 1 µM is 80% and the 50% inhibitory concentration (IC50) stood at 230 nM.

Take `NC1=Nc2cnc(Oc3ccccc3)cc2CN1[C@@H](CCC(=O)NCCN1CCOCC1)C1CCCCC1` [Compound 116]: the inhibition at 1 µM came out at 54% and the IC50 was 630 nM.

Turning to `CN(CCc1ccccc1)C(=O)CC[C@@H](C1CCCCC1)N1Cc2cc(Oc3ccccc3)ncc2N=C1N` [Compound 122, 4-(2-Amino-6-phenoxy-4H-pyrido[3,4-d]pyrimidin-3-yl)-4-(S)-cyclohexyl-N-methyl-N-phenethyl-butyramide], the inhibition at 1 µM came out at 97%.

For `NC1=Nc2cnc(Oc3ccccc3)cc2CN1[C@@H](CN1CC2(CCCCC2)NC1=O)C1CCCCC1` [Compound 135, 3-[2-(2-Amino-6-phenoxy-4H-pyrido[3,4-d]pyrimidin-3-yl)-2-(R)-cyclohexyl-ethyl]-1,3-diaza-spiro[4.5]decan-2-one], the inhibition at 1 µM was found to be 52% and the half-inhibitory concentration (IC50) is 200 nM.

As to `CC(C)OC(=O)[C@H](COC(C)(C)C)NC(=O)CC[C@@H](C1CCCCC1)N1Cc2cc(Oc3ccccc3)ncc2N=C1N` [Compound 136], the inhibition at 1 µM was 98% and the IC50 is 190 nM.

For the molecule `CC(C)(C)CCN(Cc1ccncc1)C(=O)CC[C@@H](C1CCCCC1)N1Cc2cc(Oc3ccccc3)ncc2N=C1N` [Compound 137], the inhibition at 1 µM was determined as 101% and the IC50 stood at 170 nM.

Take `C[C@H](CO)N(CCC(C)(C)C)C(=O)CC[C@@H](C1CCCCC1)N1Cc2cc(Oc3ccccc3)ncc2N=C1N` [Compound 138]: the inhibition at 1 µM turned out to be 8% and the IC50 was determined as 310 nM.

As for `C[C@@H](CO)N(CCC(C)(C)C)C(=O)CC[C@@H](C1CCCCC1)N1Cc2cc(Oc3ccccc3)ncc2N=C1N` [Compound 139], the inhibition at 1 µM amounted to 94% and the IC50 is 200 nM.

As to `CC(C)OC(=O)[C@@H](COC(C)(C)C)NC(=O)CC[C@@H](C1CCCCC1)N1Cc2cc(Oc3ccccc3)ncc2N=C1N` [Compound 140, 2-[4-(2-Amino-6-phenoxy-4H-pyrido[3,4-d]pyrimidin-3-yl)-4-cyclohexyl-butyrylamino]-3-tert-butoxy-propionic acid isopropyl ester], the inhibition at 1 µM was 98% and the IC50 was found to be 150 nM.

In the case of `NC1=Nc2cnc(Oc3ccccc3)cc2CN1[C@@H](CCC(=O)N(CCO)Cc1cccs1)C1CCCCC1` [Compound 141], the inhibition at 1 µM turned out to be 98% and the IC50 worked out at 120 nM.

For `COCCN(CCOC)C(=O)CC[C@@H](C1CCCCC1)N1Cc2cc(Oc3ccccc3)ncc2N=C1N` [Compound 142], the inhibition at 1 µM stood at 90% and the IC50 turned out to be 200 nM.

On to `NC1=Nc2cnc(Oc3ccccc3)cc2CN1[C@@H](CCC(=O)N1CCC[C@H]1CO)C1CCCCC1` [Compound 143], for which the inhibition at 1 µM came to 65% and the half-maximal inhibitory concentration (IC50) amounted to 1200 nM.

On to `NC1=Nc2cnc(Oc3ccccc3)cc2CN1[C@@H](CCC(=O)N1CCC[C@@H]1CO)C1CCCCC1` [Compound 144], for which the inhibition at 1 µM was found to be 81% and the IC50 is 820 nM.

For `CC(C)(C)CCN(CCNC(=O)OC(C)(C)C)C(=O)CC[C@@H](C1CCCCC1)N1Cc2cc(Oc3ccccc3)ncc2N=C1N` [Compound 145], the inhibition at 1 µM is 99% and the IC50 is 57 nM.

On to `CC(C)(C)CCN(CCN)C(=O)CC[C@@H](C1CCCCC1)N1Cc2cc(Oc3ccccc3)ncc2N=C1N` [Compound 146], for which the inhibition at 1 µM was found to be 100% and the IC50 was 72 nM.

On to `CC(C)(C)CCN(CCNS(N)(=O)=O)C(=O)CC[C@@H](C1CCCCC1)N1Cc2cc(Oc3ccccc3)ncc2N=C1N` [Compound 147, 4-(2-Amino-6-phenoxy-4H-pyrido[3,4-d]pyrimidin-3-yl)-4-(S)-cyclohexyl-N-(3,3-dimethyl-butyl)-N-(2-sulfamido-ethyl)-butyramide], for which the inhibition at 1 µM came out at 100% and the IC50 was 180 nM.

With `NC1=Nc2cnc(Oc3ccccc3)cc2CN1[C@@H](CCC(=O)N1CCC(c2ccccc2)CC1)C1CCCCC1` [Compound 149], the inhibition at 1 µM was determined as 66% and the IC50 was 740 nM.

Regarding `CC(C)(C)OC(=O)N1CCC(NC(=O)CC[C@@H](C2CCCCC2)N2Cc3cc(Oc4ccccc4)ncc3N=C2N)CC1` [Compound 150], the inhibition at 1 µM is 95% and the IC50 was 170 nM.

With `NC1=Nc2cnc(Oc3ccccc3)cc2CN1[C@@H](Cn1cc(C2CCCCC2)nn1)C1CCCCC1` [Compound 151], the inhibition at 1 µM worked out at 98% and the IC50 worked out at 150 nM.

Turning to `CC(C)(C)c1cn(C[C@@H](C2CCCCC2)N2Cc3cc(Oc4ccccc4)ncc3N=C2N)nn1` [Compound 152, 3-[2-(4-tert-Butyl-[1,2,3]triazol-1-yl)-1-(R)-cyclohexyl-ethyl]-6-phenoxy-3,4-dihydro-pyrido[3,4-d]pyrimidin-2-ylamine], the inhibition at 1 µM worked out at 99% and the IC50 was 88 nM.

`CC(C)(C)OCCN(Cc1cccs1)C(=O)CC[C@@H](C1CCCCC1)N1Cc2cc(Oc3ccccc3)ncc2N=C1N` [Compound 154]: the inhibition at 1 µM was found to be 102% and the IC50 was found to be 110 nM.

With `CC(C)(C)OCCN(Cc1ccccn1)C(=O)CC[C@@H](C1CCCCC1)N1Cc2cc(Oc3ccccc3)ncc2N=C1N` [Compound 155], the inhibition at 1 µM came out at 100% and the IC50 was 84 nM.

Regarding `CC(C)(C)OCCN(Cc1ccsc1)C(=O)CC[C@@H](C1CCCCC1)N1Cc2cc(Oc3ccccc3)ncc2N=C1N` [Compound 156], the inhibition at 1 µM stood at 102% and the IC50 was found to be 100 nM.

Take `CC(C)(C)OCCN(Cc1ccc(F)cc1)C(=O)CC[C@@H](C1CCCCC1)N1Cc2cc(Oc3ccccc3)ncc2N=C1N` [Compound 158]: the inhibition at 1 µM stood at 102% and the IC50 is 130 nM.

With `CC(C)(C)OCCN(Cc1cncs1)C(=O)CC[C@@H](C1CCCCC1)N1Cc2cc(Oc3ccccc3)ncc2N=C1N` [Compound 159], the inhibition at 1 µM worked out at 102% and the IC50 came out at 110 nM.

For the molecule `CC(C)(C)CNC(=O)CC[C@@H](C1CCCCC1)N1Cc2cc(Oc3ccccc3)ncc2N=C1N` [Compound 160], the “% Inhibition @ 1.0 μM” value stood at 101% and the IC50 came to 66 nM.

Take `CC(C)(C)CNCCC[C@@H](C1CCCCC1)N1Cc2cc(Oc3ccccc3)ncc2N=C1N` [Compound 161]: the inhibition at 1 µM is 94% and the IC50 turned out to be 200 nM.

`CC(C)(C)OCCN(Cc1ccccn1)C(=O)CC[C@@H](C1CCCCC1)N1Cc2cc(Oc3ccccc3)ncc2N=C1N` [Compound 162]: the “% Inhibition @ 1.0 μM” value stood at 99% and the IC50 is 90 nM.

As to `NC1=Nc2cnc(Oc3ccccc3)cc2CN1[C@@H](CCC(=O)N1CCOCC1)C1CCCCC1` [Compound 166], the inhibition at 1 µM is 85% and the IC50 was found to be 200 nM.

Consider `CC(C)(C)OC[C@H](CN)NCCC[C@@H](C1CCCCC1)N1Cc2cc(Oc3ccccc3)ncc2N=C1N` [Compound 167, N^2-[4-(2-Amino-6-phenoxy-4H-pyrido[3,4-d]pyrimidin-3-yl)-4-cyclohexyl-butyl]-3-tert-butoxy-propane-1,2-diamine], for which the inhibition at 1 µM was determined as 82% and the IC50 was found to be 520 nM.

On to `CC(C)(C)OC[C@H](CN)NC(=O)CC[C@@H](C1CCCCC1)N1Cc2cc(Oc3ccccc3)ncc2N=C1N` [Compound 168, N-(2-Amino-1-tert-butoxymethyl-ethyl)-4-(2-amino-6-phenoxy-4H-pyrido[3,4-d]pyrimidin-3-yl)-4-cyclohexyl-butyramide], for which the inhibition at 1 µM is 101%.

In the case of `CN(C(=O)CCC(C1CCCCC1)N1Cc2cc(Oc3ccccc3)ncc2N=C1N)C1CCS(=O)(=O)C1` (stereo not drawn) [Compound 170], the inhibition at 1 µM was determined as 48% and the IC50 is 830 nM.

Take `CN(CCO)C(=O)CC[C@@H](C1CCCCC1)N1Cc2cc(Oc3ccccc3)ncc2N=C1N` [Compound 171]: the inhibition at 1 µM is 77% and the IC50 worked out at 270 nM.

Turning to `Cn1c(CN(CCC(C)(C)C)C(=O)CC[C@@H](C2CCCCC2)N2Cc3cc(Oc4ccccc4)ncc3N=C2N)nc(Cl)c1Cl` [Compound 172], the inhibition at 1 µM came to 99% and the IC50 was 170 nM.

For the molecule `CCOCCCNC(=O)CC[C@@H](C1CCCCC1)N1Cc2cc(Oc3ccccc3)ncc2N=C1N` [Compound 173], the inhibition at 1 µM came out at 92% and the IC50 was found to be 130 nM.

In the case of `CC(C)(C)CCN(CCN1CCOCC1)C(=O)CC[C@@H](C1CCCCC1)N1Cc2cc(Oc3ccccc3)ncc2N=C1N` [Compound 174], the inhibition at 1 µM was 100% and the 50% inhibitory concentration (IC50) amounted to 86 nM.

Regarding `CC(C)[C@H](CCC(=O)N[C@H](C)CO)N1Cc2cc(Oc3ccccc3)ncc2N=C1N` [Compound 175], the inhibition at 1 µM worked out at 93% and the IC50 came to 97 nM.

For `NC1=Nc2cnc(Oc3ccccc3)cc2CN1[C@@H](CCC(=O)N(CCOCCOCCOCCO)C1CCCCC1)C1CCCCC1` [Compound 176, 4-(2-Amino-6-phenoxy-4H-pyrido[3,4-d]pyrimidin-3-yl)-4-(S),N-dicyclohexyl-N-(2-{2-[2-(2-hydroxy-ethoxy)-ethoxy]-ethoxy}-ethyl)-butyramide], the inhibition at 1 µM is 101% and the IC50 is 140 nM.

Consider `C[C@@H](O)[C@H](CCC(=O)N(C)C1CCCCC1)N1Cc2cc(Oc3ccccc3)ncc2N=C1N` [Compound 177], for which the inhibition at 1 µM came to 80% and the IC50 amounted to 320 nM.
